From ChEMBL document CHEMBL3585277, “Novel type of plasmin inhibitors: providing insight into P4 moiety and alternative scaffold to pyrrolopyrimidine” (Bioorg Med Chem, 2015)

Assays:
Plasminogen [1] = molecular target: T1, Plasminogen (Homo sapiens, UniProt P00747); experiment: Inhibition of plasmin (unknown origin) using Boc-Val-Leu-Lys-MCA as substrate by fluorescence analysis
Plasminogen [2] = molecular target: T1, Plasminogen; experiment: Inhibition of plasmin (unknown origin) assessed as relative potency using Boc-Val-Leu-Lys-MCA as substrate by fluorescence analysis
[3] = molecular target: Urokinase-type plasminogen activator (Homo sapiens, UniProt P00749); experiment: Inhibition of urokinase (unknown origin) using Pyr-Gly-Arg-MCA as substrate by fluorescence analysis

T1 sequence (P00747 97-580 limits assumed): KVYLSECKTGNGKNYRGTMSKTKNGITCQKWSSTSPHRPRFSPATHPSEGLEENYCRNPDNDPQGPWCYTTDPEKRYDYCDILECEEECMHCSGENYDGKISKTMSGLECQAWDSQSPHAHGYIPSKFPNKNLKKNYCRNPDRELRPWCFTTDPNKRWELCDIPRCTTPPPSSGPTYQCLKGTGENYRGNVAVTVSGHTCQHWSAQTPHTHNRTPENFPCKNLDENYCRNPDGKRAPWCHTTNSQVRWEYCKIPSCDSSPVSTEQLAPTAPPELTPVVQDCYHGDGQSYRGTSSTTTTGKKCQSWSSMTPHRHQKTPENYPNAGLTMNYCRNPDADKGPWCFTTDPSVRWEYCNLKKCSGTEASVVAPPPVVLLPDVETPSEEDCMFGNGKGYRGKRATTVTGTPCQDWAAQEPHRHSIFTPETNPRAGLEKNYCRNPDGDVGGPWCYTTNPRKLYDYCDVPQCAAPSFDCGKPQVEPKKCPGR
T1 sequence (P00747 581-810 limits assumed): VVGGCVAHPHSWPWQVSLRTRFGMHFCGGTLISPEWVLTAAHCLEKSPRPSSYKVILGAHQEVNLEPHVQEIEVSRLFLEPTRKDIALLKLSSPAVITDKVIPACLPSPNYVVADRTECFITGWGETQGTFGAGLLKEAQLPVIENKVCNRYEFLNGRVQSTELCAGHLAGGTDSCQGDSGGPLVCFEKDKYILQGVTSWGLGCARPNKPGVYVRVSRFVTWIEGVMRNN

Row | Structure (SMILES) | IC50 (Plasminogen [1]) | fold change (FC) (Plasminogen [2]) | IC50 [3]
1 | Cn1c(CN2C(=O)CN(c3ccc(Oc4ccccc4)cc3)C2=O)nc2ccc(C(=O)N[C@H](C#N)CCCCN)cc21 | 25 µM | – | –
2 | Cn1c(CN2C(=O)CN(c3ccc(Oc4ccccc4)cc3)C2=O)cc2cnc(C(=O)N[C@H](C#N)CCCCN)nc21 | 14 µM | 1 | > 200 µM
3 | Cn1c(CN2C(=O)CN(c3ccc(Oc4ccncc4)cc3)C2=O)cc2cnc(C(=O)N[C@H](C#N)CCCCN)nc21 | 74 µM | – | > 200 µM
4 | Cn1c(CN2C(=O)CN(c3ccc4c(c3)oc(=O)n4Cc3ccncc3)C2=O)cc2cnc(C(=O)N[C@H](C#N)CCCCN)nc21 | > 200 µM | – | –
5 | Cn1c(CN2C(=O)CN(c3ccc(Oc4ccccc4)cc3)C2=O)nc2cc(C(=O)N[C@H](C#N)CCCCN)ccc21 | > 200 µM | – | –
6 | N#C[C@H](CCCCN)NC(=O)c1nc2cc(CN3C(=O)CN(c4ccc(F)cc4)C3=O)ccc2o1 | > 200 µM | > 14.3 | –
7 | Cn1c(CN2C(=O)CN(c3ccc4oc(=O)n(C)c4c3)C2=O)cc2cnc(C(=O)N[C@H](C#N)CCCCN)nc21 | 43 µM | 3.1 | –
8 | Cn1c(CN2C(=O)CN(c3ccc4oc(=O)n(Cc5ccncc5)c4c3)C2=O)cc2cnc(C(=O)N[C@H](C#N)CCCCN)nc21 | 23 µM | – | –
9 | Cn1c(CN2C(=O)CN(c3ccc(F)cc3)C2=O)cc2cnc(C(=O)N[C@H](C#N)CCCCN)nc21 | 43 µM | 3 | > 200 µM
10 | CC(C)Cn1c(=O)oc2cc(N3CC(=O)N(Cc4cc5cnc(C(=O)N[C@H](C#N)CCCCN)nc5n4C)C3=O)ccc21 | > 200 µM | – | –
11 | Cn1c(CN2C(=O)CN(c3ccc4c(c3)oc(=O)n4C)C2=O)cc2cnc(C(=O)N[C@H](C#N)CCCCN)nc21 | 130 µM | 3.9 | –
12 | Cn1c(CN2C(=O)CN(c3ccc(F)cc3)C2=O)nc2ccc(C(=O)N[C@H](C#N)CCCCN)cc21 | 100 µM | – | > 200 µM
13 | CC(C)Cn1c(=O)oc2ccc(N3CC(=O)N(Cc4cc5cnc(C(=O)N[C@H](C#N)CCCCN)nc5n4C)C3=O)cc21 | 29 µM | – | –
14 | CCCn1c(=O)oc2ccc(N3CC(=O)N(Cc4cc5cnc(C(=O)N[C@H](C#N)CCCCN)nc5n4C)C3=O)cc21 | 26 µM | – | –
15 | CCCn1c(=O)oc2cc(N3CC(=O)N(Cc4cc5cnc(C(=O)N[C@H](C#N)CCCCN)nc5n4C)C3=O)ccc21 | 160 µM | – | –
16 | Cn1c(CN2C(=O)CN(c3ccc(Oc4ccncc4)cc3)C2=O)nc2ccc(C(=O)N[C@H](C#N)CCCCN)cc21 | 56 µM | – | > 200 µM
